Measured values as given in patent US9101600B2, “Compounds as RORγt modulators and uses thereof” (New York University, priority 2010, dated 2015).

Target: RORγ/γt (Mus musculus, UniProt P51450, T352K)
Assay: RORγ/γt-luc reporter S2 cell assay / HTS (firefly luciferase)
Details: for Curve Class: RORγ/γt HTS concentration response curve class
Source text: The Drosophila S2 cell line was originally purchased from Invitrogen and was maintained in Schneider's medium supplemented with 10% heat-inactivated bovine fetal calf serum and antibiotics (Invitrogen). Gal4 DNA binding domain (G4 DBD) corresponding to amino acids 1 through 147 of Gal4 protein was PCR amplified to make a fusion construct with mouse RORγt (amino acids 79 to the carboxyl terminal end) lacking its DNA binding domain. The resulting chimeric gene was subcloned into the copper inducible pMT/V5-His A vector (available from Invitrogen). In a similar manner, Gal4 fusion constructs were prepared with mouse RORα (amino acids 142 to end) or Drosophila DHR3 (amino acids 120 to end).
In order to generate stable cell lines, cells were co-transfected with pMT-G4 DBD-RORγt, pMT-G4 DBD-RORα, pMT-G4 DBD-DHR3, or pMT-G4DBDVP16 and pHygro plasmids (Invitrogen) and screened for resistant colonies in the presence of hygromycin (0.3 mg/mL). More than 150 independent RORγ stable clones with luciferase reporters (pMt-RORγ_luc) were tested for their suitability for the high-throughput screening (HTS) based on the following criteria: high signal-to background ratio in 384- and 1,536-well plates, their high induction rate upon the addition of copper, and RORγ/γt specificity probed by the dsRORγ- or RORγ/γt antagonist-mediated suppression. Positive clones were further transfected with pUAST-firefly luciferase, polIII-Renilla luciferase, and pCoPuro (Iwaki, Figuera et al. 2003) (“Rapid selection of Drosophila S2 cells with the puromycin resistance gene.” Biotechniques 35(3): 482-4, 486.) and selected with puromycin (2.5 ug/ml). […] Using similar methods, stable clones with genomic integration of the luciferase reporters and other reporters were generated such as pMT-RORα_luc, pMT-DHR3_luc, or pMT-VP16_luc.
600 G4 DBD-RORγ/γt-luc reporter (#25) or G4 DBD-VP16-luc reporter cells were distributed into each well of 1,536-well white bottom plates in 4 μl S2 cell culture volume containing hygromicin (300 μg/ml) and puromycin (2 μg/ml). Small compounds in seven different concentrations range from 46 μM to 1.7 nM were pin-transferred (23 nl) by a robot (Inglese et al., 2006, Proc. Natl. Acad. Sci. 103:11473-8). […] After 20-hour incubation at ambient temperature, 1.5 μl firefly luciferase detection mix was added and the luciferase activities were measured in 10 min. ViewLux luminometers were used for measuring luciferase signal.
Since their cognate DNA binding sites were not well characterized, the DNA binding domains (DBD) of RORγ/γt, RORα(mouse homolog for PORγ), and DHR3 (Drosophila orthologue for ROR family proteins) were replaced with the heterologous yeast GAL4 DBD. The transcriptionally active domain of general transcriptional activator VP16 was also fused with GAL4 DBD.

RORγ/γt, sequence (P51450 with tags, fused parts or gaps T352K): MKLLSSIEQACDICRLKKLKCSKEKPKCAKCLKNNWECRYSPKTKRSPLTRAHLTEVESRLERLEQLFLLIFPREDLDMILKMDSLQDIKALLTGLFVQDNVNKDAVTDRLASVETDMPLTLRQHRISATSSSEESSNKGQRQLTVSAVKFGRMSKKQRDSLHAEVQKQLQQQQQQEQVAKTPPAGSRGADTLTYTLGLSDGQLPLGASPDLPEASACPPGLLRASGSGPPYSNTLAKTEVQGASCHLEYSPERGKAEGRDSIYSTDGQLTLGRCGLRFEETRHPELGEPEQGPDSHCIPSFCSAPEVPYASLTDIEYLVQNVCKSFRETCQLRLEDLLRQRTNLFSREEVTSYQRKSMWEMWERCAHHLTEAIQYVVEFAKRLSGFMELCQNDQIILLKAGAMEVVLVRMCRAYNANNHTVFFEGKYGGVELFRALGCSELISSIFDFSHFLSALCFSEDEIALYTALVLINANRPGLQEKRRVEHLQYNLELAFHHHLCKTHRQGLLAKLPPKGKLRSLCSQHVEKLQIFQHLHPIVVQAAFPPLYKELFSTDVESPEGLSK

| Structure (SMILES) | IC50 [µM] | 80% Inhib. @ (RORγ/γt reporter, S2 cells, concentration for 80% inhibition) [µM] | Curve Class | AC50 [µM] |
| --- | --- | --- | --- | --- |
| C=C1NN=C(c2cc(-c3cccc(OCC)c3)nc3ccccc23)N1CC [MLS000324596-02] | 2.11 | 3.293 | – | – |
| CCOC(=O)[C@@H]1[C@H]2COc3ccc(Br)cc3[C@@H]2N2C(=O)N(c3ccc(C(F)(F)F)cc3)C(=O)[C@@]12C [MLS001066025-01] | – | – | 4 | – |
| CCOC(=O)[C@@H]1[C@H]2COc3ccc(Br)cc3[C@@H]2N2C(=O)N(c3cccc(F)c3)C(=O)[C@@]12C [MLS001066026-01] | – | – | −2.2 | 17.8 |
| CCOC(=O)[C@@H]1[C@H]2COc3ccc(Br)cc3[C@@H]2N2C(=O)N(c3ccc(C(F)(F)F)cc3)C(=O)[C@]12C [MLS001066035-01] | – | – | 4 | 3.98 |
| CCOC(=O)[C@@H]1[C@H]2COc3ccc(Br)cc3[C@H]2N2C(=O)N(c3cccc(F)c3)C(=O)[C@]12C [MLS001066046-01] | – | – | 4 | 0.0126 |
| CCOC(=O)[C@@H]1[C@H]2COc3ccc(Br)cc3[C@H]2N2C(=O)N(c3cccc(Cl)c3)C(=O)[C@]12C [MLS001066096-01] | – | – | −2.2 | 8.91 |
| CCOC(=O)[C@@H]1[C@H]2COc3ccccc3[C@H]2N2C(=O)N(c3ccc(OC)cc3)C(=O)[C@]12C [MLS001066225-01] | – | – | 4 | – |
| CCOC(=O)[C@@H]1[C@H]2COc3cc(OC)ccc3[C@@H]2N2C(=O)N(c3ccc(F)cc3)C(=O)[C@]12C [MLS001066228-01] | – | – | 4 | 0.141 |
| CCOC(=O)[C@@H]1[C@H]2COc3cc(OC)ccc3[C@@H]2N2C(=O)N(c3ccc(C(F)(F)F)cc3)C(=O)[C@]12C [MLS001066230-01] | – | – | 4 | – |
| CCOC(=O)[C@@H]1[C@H]2COc3cc(OC)ccc3[C@@H]2N2C(=O)N(c3cccc(F)c3)C(=O)[C@@]12C [MLS001066231-01] | – | – | −2.1 | 10 |
| CCOC(=O)[C@@H]1[C@H]2COc3cc(OC)ccc3[C@H]2N2C(=O)N(c3ccc(F)cc3)C(=O)[C@]12C [MLS001066238-01] | – | – | 4 | – |
| CCOC(=O)[C@@H]1[C@H]2COc3cc(OC)ccc3[C@@H]2N2C(=O)N(c3cccc(F)c3)C(=O)[C@]12C [MLS001066241-01] | – | – | 4 | 3.98 |
| CCOC(=O)[C@@H]1[C@H]2COc3ccc(Br)cc3[C@@H]2N2C(=O)N(c3ccccc3)C(=O)[C@]12C [MLS001066242-01] | – | – | 4 | 0.0224 |
| CCOC(=O)[C@@H]1[C@H]2COc3ccc(Br)cc3[C@@H]2N2C(=O)N(c3ccc(F)cc3)C(=O)[C@]12C [MLS001066243-01] | – | – | 4 | 0.891 |
| CCOC(=O)[C@@H]1[C@H]2COc3ccc(Br)cc3[C@@H]2N2C(=O)N(c3ccc(Br)cc3)C(=O)[C@]12C [MLS001066244-01] | – | – | 4 | 0.0056 |
| CCOC(=O)[C@@H]1[C@H]2COc3cc(OC)ccc3[C@H]2N2C(=O)N(c3ccc(F)cc3)C(=O)[C@@]12C [MLS001066248-01] | – | – | 4 | – |
| CCOC(=O)[C@@H]1[C@H]2COc3cc(OC)ccc3[C@H]2N2C(=O)N(c3ccc(C(F)(F)F)cc3)C(=O)[C@@]12C [MLS001066250-01] | – | – | 4 | 4.47 |
| CCOC(=O)[C@@H]1[C@H]2COc3ccc(Br)cc3[C@H]2N2C(=O)N(c3ccc(F)cc3)C(=O)[C@]12C [MLS001066253-01] | – | – | 4 | – |
| CCOC(=O)[C@@H]1[C@H]2COc3ccc(Br)cc3[C@H]2N2C(=O)N(c3ccc(Br)cc3)C(=O)[C@]12C [MLS001066254-01] | – | – | 4 | 1.12 |
| CCOC(=O)[C@@H]1[C@H]2COc3ccccc3[C@H]2N2C(=O)N(c3cccc(F)c3)C(=O)[C@]12C [MLS001066256-01] | – | – | 4 | – |
| CCOC(=O)[C@H]1[C@H]2COc3cc(OC)ccc3[C@@H]2N2C(=O)N(c3ccc(Br)cc3)C(=O)[C@@]12C [MLS001066259-01] | – | – | 4 | – |
| CCOC(=O)[C@@H]1[C@H]2COc3ccc(Br)cc3[C@H]2N2C(=O)N(c3ccc(F)cc3)C(=O)[C@@]12C [MLS001066263-01] | – | – | 4 | 0.0045 |
| CCOC(=O)[C@@H]1[C@H]2COc3cc(OC)ccc3[C@@H]2N2C(=O)N(c3ccc(Cl)cc3)C(=O)[C@@]12C [MLS001066268-01] | – | – | −2.1 | 8.91 |
| CCOC(=O)[C@@H]1[C@H]2COc3cc(OC)ccc3[C@@H]2N2C(=O)N(c3cccc(C)c3)C(=O)[C@@]12C [MLS001066270-01] | – | – | −3 | 12.6 |
| CCOC(=O)[C@@H]1[C@H]2COc3ccccc3[C@H]2N2C(=O)N(c3ccc(C(F)(F)F)cc3)C(=O)[C@]12C [MLS001066275-01] | – | – | 4 | 5.01 |
| CCOC(=O)[C@@H]1[C@H]2COc3ccccc3[C@@H]2N2C(=O)N(c3cccc(Cl)c3)C(=O)[C@@]12C [MLS001066276-01] | – | – | −3 | 17.8 |
| CCOC(=O)[C@@H]1[C@H]2COc3cc(OC)ccc3[C@@H]2N2C(=O)N(c3ccc(OC)cc3)C(=O)[C@]12C [MLS001066279-01] | – | – | 4 | – |

| Structure (SMILES) | IC50 [µM] | 80% Inhib. @ (RORγ/γt reporter, S2 cells, concentration for 80% inhibition) [µM] | Curve Class | AC50 [µM] |
| --- | --- | --- | --- | --- |
| CCOC(=O)[C@@H]1[C@H]2COc3cc(OC)ccc3[C@@H]2N2C(=O)N(c3cccc(Cl)c3)C(=O)[C@@]12C [MLS001066281-01] | – | – | −2.2 | 11.2 |
| CCOC(=O)[C@@H]1[C@H]2COc3ccccc3[C@@H]2N2C(=O)N(c3cccc(Cl)c3)C(=O)[C@]12C [MLS001066286-01] | – | – | 4 | – |
| CCOC(=O)[C@@H]1[C@H]2COc3cc(OC)ccc3[C@@H]2N2C(=O)N(c3cccc(Cl)c3)C(=O)[C@]12C [MLS001066291-01] | – | – | 4 | 0.112 |
| CCOC(=O)[C@@H]1[C@H]2COc3ccc(Br)cc3[C@@H]2N2C(=O)N(c3ccc(OC)cc3)C(=O)[C@]12C [MLS001066294-01] | – | – | 4 | 0.112 |
| CCOC(=O)[C@@H]1[C@H]2COc3cc(OC)ccc3[C@H]2N2C(=O)N(c3ccc(C)cc3)C(=O)[C@@]12C [MLS001066297-01] | – | – | 4 | 0.891 |
| CCOC(=O)[C@@H]1[C@H]2COc3cc(OC)ccc3[C@H]2N2C(=O)N(c3cccc(Cl)c3)C(=O)[C@]12C [MLS001066301-01] | – | – | 4 | 0.631 |
| CCOC(=O)[C@@H]1[C@H]2COc3ccc(Br)cc3[C@H]2N2C(=O)N(c3ccc(C)cc3)C(=O)[C@]12C [MLS001066302-01] | – | – | 4 | – |
| CCOC(=O)[C@@H]1[C@H]2COc3ccccc3[C@@H]2N2C(=O)N(c3cccc(C)c3)C(=O)[C@]12C [MLS001066305-01] | – | – | 4 | 0.891 |
| CCOC(=O)[C@@H]1[C@H]2COc3ccccc3[C@H]2N2C(=O)N(c3cccc(Cl)c3)C(=O)[C@@]12C [MLS001066306-01] | – | – | 4 | 7.08 |
| CCOC(=O)[C@H]1[C@H]2COc3cc(OC)ccc3[C@@H]2N2C(=O)N(c3ccc(Cl)cc3)C(=O)[C@@]12C [MLS001066308-01] | – | – | 4 | – |
| CCOC(=O)[C@@H]1[C@H]2COc3cc(OC)ccc3[C@H]2N2C(=O)N(c3cccc(Cl)c3)C(=O)[C@@]12C [MLS001066311-01] | – | – | 4 | 10 |
| CCOC(=O)[C@@H]1[C@H]2COc3ccc(Br)cc3[C@H]2N2C(=O)N(c3ccc(Cl)cc3)C(=O)[C@@]12C [MLS001066313-01] | – | – | 4 | 0.0447 |
| CCOC(=O)[C@@H]1[C@H]2COc3cc(OC)ccc3[C@@H]2N2C(=O)N(c3ccc(Br)cc3)C(=O)[C@@]12C [MLS001066318-01] | – | – | −2.1 | 7.94 |
| CCOC(=O)[C@@H]1[C@H]2COc3cc(OC)ccc3[C@@H]2N2C(=O)N(c3ccc(C(F)(F)F)cc3)C(=O)[C@@]12C [MLS001066319-01] | – | – | −3 | 15.8 |
| CCOC(=O)[C@H]1[C@H]2COc3cc(OC)ccc3[C@@H]2N2C(=O)N(c3cccc(Cl)c3)C(=O)[C@@]12C [MLS001066321-01] | – | – | 4 | 6.31 |
| CCOC(=O)[C@@H]1[C@H]2COc3ccccc3[C@@H]2N2C(=O)N(c3ccc(Cl)cc3)C(=O)[C@]12C [MLS001066434-01] | – | – | 4 | 3.16 |
| CCOC(=O)[C@@H]1[C@H]2COc3ccccc3[C@@H]2N2C(=O)N(c3ccc(C)cc3)C(=O)[C@]12C [MLS001066443-01] | – | – | 4 | 3.98 |
| CCOC(=O)[C@@H]1[C@H]2COc3ccccc3[C@H]2N2C(=O)N(c3ccc(Cl)cc3)C(=O)[C@]12C [MLS001066444-01] | – | – | 4 | 0.0071 |
| CCOC(=O)[C@@H]1[C@H]2COc3ccccc3[C@H]2N2C(=O)N(c3ccc(C)cc3)C(=O)[C@]12C [MLS001066453-01] | – | – | 4 | 0.282 |
| CCOC(=O)[C@@H]1[C@H]2COc3ccccc3[C@H]2N2C(=O)N(c3ccc(Cl)cc3)C(=O)[C@@]12C [MLS001066454-01] | – | – | 4 | 11.2 |
| CCOC(=O)[C@@H]1[C@H]2COc3ccccc3[C@@H]2N2C(=O)N(c3ccccc3)C(=O)[C@@]12C [MLS001066482-01] | – | – | −2.1 | 12.6 |
| CCOC(=O)[C@@H]1[C@H]2COc3ccccc3[C@@H]2N2C(=O)N(c3ccc(F)cc3)C(=O)[C@@]12C [MLS001066483-01] | – | – | −2.2 | 12.6 |
| CCOC(=O)[C@@H]1[C@H]2COc3ccccc3[C@@H]2N2C(=O)N(c3ccccc3)C(=O)[C@]12C [MLS001066492-01] | – | – | 4 | 0.141 |
| CCOC(=O)[C@@H]1[C@H]2COc3ccccc3[C@H]2N2C(=O)N(c3ccccc3)C(=O)[C@]12C [MLS001066502-01] | – | – | 4 | 0.794 |
| CCOC(=O)[C@@H]1[C@H]2COc3ccccc3[C@H]2N2C(=O)N(c3ccc(F)cc3)C(=O)[C@]12C [MLS001066503-01] | – | – | 4 | 2.51 |
| CCOC(=O)[C@@H]1[C@H]2COc3ccccc3[C@@H]2N2C(=O)N(c3ccc(OC)cc3)C(=O)[C@@]12C [MLS001066514-01] | – | – | 4 | 14.1 |
| CCOC(=O)[C@@H]1[C@H]2COc3ccccc3[C@@H]2N2C(=O)N(c3ccc(Cl)cc3)C(=O)[C@@]12C [MLS001066523-01] | – | – | −3 | 15.8 |
